Literature values, collected in patent US12295956B2, “Anti-viral compositions” (Calladine Pharmaceuticals Limited, priority 2018, dated 2025).

Assays:
[1] = gentle heating to a pourable hot liquid

solubility in hydrophobic solvent systems (hydrophobic solvent systems): almost totally insoluble
solubility in water (water): poor solubility in water
heat stability [1]: relatively heat stable
SMILES: Nc1nc2c(ncn2COCCO)c(=O)[nH]1 [Aciclovir, aciclovir]
